# Key:
# COL1A2 = test: In vitro efficacy in semi-activated LX2 cells, qPCR: COL1A2; type: cell-based; conditions: Homo sapiens, LX-2, 48 hours, Q-PCR, read-out: COL1A2 mRNA inhibition rate
# Method: (§1) Test compounds were added to the LX-2 cells respectively, and total RNA in the cells was extracted 48 hours later. This experiment was performed strictly in accordance with the instructions of the Total RNA Kit. The steps were as follows (note: this experiment was performed on ice throughout the entire process, and special RNase-free tips were used throughout the entire process): • 1) The 12-well cell culture plate was taken out from the incubator, the cell culture medium was discarded, the cells were washed twice with 1 mL of 1×PBS, and a negative pressure suction device was used to fully remove PBS; • 2) 350 μL of TRK Lysis Buffer mixture/well was prepared as needed (mixture preparation method: 1 mL of TRKLysis Buffer+20 μL of β-mercaptoethanol), vortexed and mixed well. 350 μL was added to each well of the 12-well cell culture plate, and allowed to stand at room temperature for 5 minutes to fully lyse the cells; • 3) 70% ethanol/well was prepared as needed, vortexed and mixed well. 350 μL was added to each well of the 12-well cell culture plate, mixed well by shaking, and transferred to the spin column (spin column+collection tube were assembled); • 4) Centrifugation was performed at 4° C., 12000 g for 60 sec. The waste liquid was discarded after centrifugation, while the spin column was kept; • 5) 500 μL of RNA Wash Buffer I was added, centrifuged at 4° C., 12000 g for 60 sec, the waste liquid was discarded after centrifugation, and the collection column was kept; • 6) 500 μL of RNA Wash Buffer II (confirmed that ethanol had been added) was added, centrifuged at 4° C., 12000 g for 60 sec, the waste liquid was discarded after centrifugation, and the collection column was kept; • 7) step 6) was repeated once again, centrifugation was performed at 4° C., 12000 g for 90 sec, the waste liquid was discarded after centrifugation, and the collection column was kept; • 8) Centrifugation was performed at 4° C., 12000 g for 120 sec to ensure that the spin column was fully dried; • 9) The dried spin column was inserted into a new 1.5 mL EP tube, and 30 μL of DEPC water was added to the membrane in the center of the spin column. It should be careful not to touch the EP tube cover in this step. It was allowed to stand at room temperature for 5 minutes to ensure that the RNA was fully dissolved in DEPC water. Centrifugation was performed at 4° C., 12000 g for 60 sec, and the EP tube was kept; • 10) NanoDrop ultra-micro-volume spectrophotometer was used to detect RNA concentration;
# (§2) 5.2 Reverse transcription of RNA into cDNA: According to the instructions of PrimeScript™ RT reagent Kit (Perfect Real Time), the specific experimental steps were as follows:
# (§3) 5.3 Q-PCR detection of target gene expression: According to the instructions of Power SYBR® Green PCR Master Mix, the specific operations were as follows:
# (§4) After the reaction was completed, the amplification curve and dissolution curve of Q-PCR were confirmed, and the relative quantification method ([…]) was used to perform data analysis on the experimental results.
# (§5) LX2 cells were passaged and plated normally. After adherent growth for 12 hours, 50 µM of the test compound was added. After 48 hours, the cells were collected, total RNA was extracted, and Q-PCR was used to detect the changes in the mRNA expression levels of liver fibrosis-related genes (ACTA2 encoding α-SMA, COL1A1 and COLIA2 encoding collagen I, COL3A1 encoding collagen III, SMAD3 encoding Smad3) and inflammation-related genes (IL1β encoding IL-1β, TNFα encoding TNFα) (for specific methods, see 5. Q-PCR detection of target gene expression as described above). α-SMA was a marker of hepatic stellate cell activation, and collagen I and collagen III were the main components of extracellular matrix deposition.
# α-SMA [1] = test: In vitro efficacy in semi-activated LX2 cells, qPCR: α-SMA; type: cell-based; conditions: 50 µM, 48 hours, Q-PCR, read-out: α-SMA mRNA inhibition rate
# Method: as §1, §2, §3, §4
# as §5, with “After adherent growth for 12 hours, 50 µM of the test compound was added.” left out
# COL3A1 = test: In vitro efficacy in semi-activated LX2 cells, qPCR: COL3A1; type: cell-based; conditions: Homo sapiens, LX-2, 50 µM, 48 hours, Q-PCR, read-out: COL3A1 mRNA inhibition rate
# Method: as §1, §2, §3, §4
# as §5, with “After adherent growth for 12 hours, 50 µM of the test compound was added.” left out
# IL-1β = test: In vitro efficacy in semi-activated LX2 cells, qPCR: IL-1β; type: cell-based; conditions: Homo sapiens, LX-2, 50 µM, 48 hours, Q-PCR, read-out: IL-1β mRNA inhibition rate
# Method: as §1, §2, §3, §4
# as §5, with “After adherent growth for 12 hours, 50 µM of the test compound was added.” left out
# [2] = Pharmacokinetic testing in rats; type: in vivo, SD rats; conditions: male, SD, rat, plasma, PO 20 mg/kg
# Method: Rats were used as test animals to study the pharmacokinetic behavior of the following compounds in rat plasma.
# The drugs were self-made according to the examples of the present invention.
# SD rats, 6-8 weeks old, 3 for each administration method/example, male.
# The animals were fasted overnight, ate food 8 hours after taking the drug, and drank water freely.
# Blood was collected before administration and at 5 min, 15 min, 30 min, 1 hr, 2 hr, 4 hr, 8 hr and 24 hr after administration.
# The blood was placed on wet ice and centrifuged to obtain plasma sample (2000 g, 5 min at 4° C.).
# The LC-MS/MS method was used to determine the blood drug concentration. The HPLC conditions were: mobile phase A: H2O-0.5% FA; mobile phase B: ACN-0.5% FA;
# WinNonlin 8.2 non-compartmental model was used to estimate pharmacokinetic parameters (PK parameters, including but not limited to peak concentration (Cmax), time to peak (Tmax), terminal elimination rate (Ke), terminal elimination half-life (T1/2), area under drug-time curve (AUC), clearance rate (CL), apparent volume of distribution (Vd), mean residence time (MRT), bioavailability (F), etc.).
# [3] = system: collagen I and collagen III; test: Semi-activated LX2 cells, qPCR: collagen I and collagen III at the mRNA level; type: cell-based; conditions: 48 hours, Q-PCR, Table 2
# Method: as §1, §3
# as §5, with “deposition. […]” for “deposition.”
# COL1A1 = test: In vitro efficacy in semi-activated LX2 cells, qPCR: COL1A1; type: cell-based; conditions: Homo sapiens, LX-2, 50 µM, 48 hours, Q-PCR, read-out: COL1A1 mRNA inhibition rate
# Method: as §1, §2, §3, §4
# as §5, with “After adherent growth for 12 hours, 50 µM of the test compound was added.” left out
# Smad3 = test: In vitro efficacy in semi-activated LX2 cells, qPCR: Smad3; type: cell-based; conditions: Homo sapiens, LX-2, 50 µM, 48 hours, Q-PCR, read-out: Smad3 mRNA inhibition rate
# Method: as §1, §2, §3, §4
# as §5, with “After adherent growth for 12 hours, 50 µM of the test compound was added.” left out
# TNF-α = test: In vitro efficacy in semi-activated LX2 cells, qPCR: TNF-α; type: cell-based; conditions: Homo sapiens, LX-2, 48 hours, Q-PCR, read-out: TNF-α mRNA inhibition rate
# Method: as §1, §2, §3, §4, §5
# α-SMA [4] = test: Semi-activated LX2 cells, Western blot: α-SMA protein; type: cell-based; conditions: 50-400 μM, 48 hours, FIG. 2, vs 50 μM aspartic acid
AUC(0-t) [2],Tmax [2],Cmax ([2]; read-out: Cmax),Compound,inhibition at 50 µM (COL1A2),inhibition at 50 µM (α-SMA [1]),inhibition at 50 µM (COL3A1),inhibition at 50 µM (IL-1β),inhibition of the expression of collagen I and collagen III at the mRNA level [3],inhibition at 50 µM (COL1A1),inhibition at 50 µM (Smad3),inhibition at 50 µM (TNF-α),inhibitory effect on α-SMA protein as compared to ASP (α-SMA [4])
–,–,–,"CCC(=O)N[C@@H](CC(=O)O)C(=O)O [Compound 58, propionyl-L-aspartic acid]",1 to 10%,1 to 10%,1 to 10%,1 to 10%,–,–,–,–,–
26700 ng·h/mL,24 h,1960 ng/mL,"N[C@@H](CC(=O)O)C(=O)O [Aspartic acid, aspartic acid]",–,–,–,–,–,–,–,–,–
–,–,–,CC(=O)N[C@@H](CC(=O)O)C(=O)O [Compound 30],1 to 10%,1 to 10%,–,10 to 25%,could inhibit,25 to 50%,–,–,–
–,–,–,N[C@@H](CC(=O)OC1CCCCC1)C(=O)O [Compound 23],1 to 10%,–,1 to 10%,1 to 10%,–,1 to 10%,1 to 10%,1 to 10%,–
–,–,–,O=C(O)C[C@H](NC(=O)OCc1ccccc1)C(=O)O [Compound 2],1 to 10%,1 to 10%,10 to 25%,1 to 10%,could inhibit,25 to 50%,1 to 10%,10 to 25%,–
–,–,–,"COC(=O)N[C@@H](CC(=O)O)C(=O)O [Compound 61, (methoxycarbonyl)-L-aspartic acid]",1 to 10%,–,1 to 10%,1 to 10%,could inhibit,25 to 50%,1 to 10%,1 to 10%,–
–,–,–,CC(C)(C)OC(=O)C[C@H](N)C(=O)OC(C)(C)C [Compound 41],–,–,1 to 10%,1 to 10%,–,–,–,–,stronger inhibitory effects
